# The NIST ThermoML archive (doi:10.1021/je0603325)
# Numbers after ± are expanded uncertainties.
# Key:
# [1] = 101 kPa, Liquid
# [2] = molar heat capacity at constant pressure; details: 101 kPa, Liquid, Small sample (50 mg) DSC
# [3] = xn = mol fraction of the nth substance listed; details: 101 kPa, Liquid, x2 = 0
structure (smiles),measurement,setting,value
"BrCCBr [1,2-dibromoethane]",speed of sound,[1]; 292.84 K,1007.5 ± 2.4 m/s
same,mass density,[1]; 293.15 K,2178.77 ± 2.9 kg/m3
same,mass density,[1]; 298.15 K,2168.41 ± 2.9 kg/m3
same,speed of sound,[1]; 299.17 K,991.14 ± 2.4 m/s
same,mass density,[1]; 303.15 K,2157.94 ± 2.9 kg/m3
same,speed of sound,[1]; 303.37 K,980.18 ± 2.4 m/s
same,mass density,[1]; 308.15 K,2147.47 ± 2.8 kg/m3
same,speed of sound,[1]; 308.75 K,966.56 ± 2.4 m/s
same,mass density,[1]; 313.15 K,2136.96 ± 2.8 kg/m3
same,speed of sound,[1]; 314.45 K,952 ± 2.3 m/s
same,molar heat capacity at constant pressure,[2]; 293.15 K,136.87 ± 2.1 J/K/mol
same,molar heat capacity at constant pressure,[2]; 294.15 K,136.9 ± 2.1 J/K/mol
same,molar heat capacity at constant pressure,[2]; 295.15 K,136.95 ± 2.1 J/K/mol
same,molar heat capacity at constant pressure,[2]; 296.15 K,136.99 ± 2.1 J/K/mol
same,molar heat capacity at constant pressure,[2]; 297.15 K,137.02 ± 2.1 J/K/mol
same,molar heat capacity at constant pressure,[2]; 298.15 K,137.04 ± 2.1 J/K/mol
same,molar heat capacity at constant pressure,[2]; 299.15 K,137.09 ± 2.1 J/K/mol
same,molar heat capacity at constant pressure,[2]; 300.15 K,137.11 ± 2.1 J/K/mol
same,molar heat capacity at constant pressure,[2]; 301.15 K,137.15 ± 2.1 J/K/mol
same,molar heat capacity at constant pressure,[2]; 302.15 K,137.2 ± 2.1 J/K/mol
same,molar heat capacity at constant pressure,[2]; 303.15 K,137.25 ± 2.1 J/K/mol
same,molar heat capacity at constant pressure,[2]; 304.15 K,137.29 ± 2.1 J/K/mol
same,molar heat capacity at constant pressure,[2]; 305.15 K,137.32 ± 2.1 J/K/mol
same,molar heat capacity at constant pressure,[2]; 306.15 K,137.39 ± 2.1 J/K/mol
same,molar heat capacity at constant pressure,[2]; 307.15 K,137.42 ± 2.1 J/K/mol
same,molar heat capacity at constant pressure,[2]; 308.15 K,137.49 ± 2.1 J/K/mol
same,molar heat capacity at constant pressure,[2]; 309.15 K,137.53 ± 2.1 J/K/mol
same,molar heat capacity at constant pressure,[2]; 310.15 K,137.6 ± 2.1 J/K/mol
same,molar heat capacity at constant pressure,[2]; 311.15 K,137.65 ± 2.1 J/K/mol
same,molar heat capacity at constant pressure,[2]; 312.15 K,137.71 ± 2.1 J/K/mol
same,molar heat capacity at constant pressure,[2]; 313.15 K,137.77 ± 2.1 J/K/mol
CCCCCCC [heptane],mass density,[1]; 293.15 K,683.82 ± 0.63 kg/m3
same,mass density,[1]; 298.15 K,679.59 ± 0.63 kg/m3
same,mass density,[1]; 303.15 K,675.31 ± 0.64 kg/m3
same,mass density,[1]; 308.15 K,671.02 ± 0.65 kg/m3
same,mass density,[1]; 313.15 K,666.68 ± 0.65 kg/m3
CCCCCCC [heptane] + BrCCBr,mass density,[3]; 293.15 K,683.82 ± 0.63 kg/m3
same,mass density,[3]; 298.15 K,679.59 ± 0.63 kg/m3
same,mass density,[3]; 303.15 K,675.31 ± 0.64 kg/m3
same,mass density,[3]; 308.15 K,671.02 ± 0.65 kg/m3
same,mass density,[3]; 313.15 K,666.68 ± 0.65 kg/m3
